Laboratory results as given in ChEMBL document CHEMBL4402609, “Optimization of Hydantoins as Potent Antimycobacterial Decaprenylphosphoryl-β-d-Ribose Oxidase (DprE1) Inhibitors” (J Med Chem, 2020).

Test: AUC in C57BL/6J mouse blood infected with Mycobacterium tuberculosis H37Rv at 200 mg/kg, po administered once daily for 4 consecutive days starting from 5 days post infection and measured after 24 hrs post dose
Type: ADME, organism-based
Set-up: dose 200 mg/kg, time < 24 hr, route oral
Settings: not given

SMILES | AUC at 24 h
CC1(c2ccc(S(N)(=O)=O)cc2)NC(=O)N(CC(=O)c2ccc(F)cc2F)C1=O (racemic) | 31400 ng·h/mL

Test: AUC in C57BL/6J mouse blood infected with Mycobacterium tuberculosis H37Rv at 170 mg/kg, po administered once daily for 4 consecutive days starting from 5 days post infection and measured up to 6 hrs post dose
Type: ADME, organism-based
Set-up: time < 6 hr, dose 170 mg/kg, route oral
Settings: not given

SMILES | AUC at 6 h
CC1(c2ccc(-n3cnnn3)cc2)NC(=O)N(CC(=O)c2ccc(F)cc2F)C1=O (configuration not stated) | 6380 ng·h/mL

Test: Intrinsic clearance in human microsomes assessed as per gram protein at 0.5 uM after 30 mins in presence of NADPH by LC-MS/MS analysis
Type: ADME, Microsome
Settings: 0.5 h

SMILES | clearance
CC1(c2ccc(S(N)(=O)=O)cc2)NC(=O)N(CC(=O)c2ccc(F)cc2F)C1=O (racemic) | < 0.4 mL/min/g

Test: Lipophilicity, log D of compound at pH 7.4 by chromatographic method
Type: physicochemical
Settings: buffer

SMILES | chromatographic logD
C[C@]1(c2ccc(S(N)(=O)=O)cc2)NC(=O)N(CC(=O)c2ccc(F)cc2F)C1=O | 3.17
C[C@@]1(c2ccc(S(N)(=O)=O)cc2)NC(=O)N(CC(=O)c2ccc(F)cc2F)C1=O | 3.17
CC1(c2ccc(S(=O)(=O)Nc3ccccc3)cc2)NC(=O)N(CC(=O)c2ccc(F)cc2F)C1=O (racemic) | 5.03
CCCCS(=O)(=O)Nc1ccc(C2(C)NC(=O)N(CC(=O)c3ccc(F)cc3F)C2=O)cc1 (racemic) | 4.96
CC1(c2ccc(C#N)cc2)NC(=O)N(CC(=O)c2ccc(Cl)s2)C1=O (racemic) | 4.85
CC1(c2ccc(S(N)(=O)=O)cc2)NC(=O)N(CC(=O)c2cccc(C(F)(F)F)c2)C1=O (racemic) | 3.96
CC1(c2ccc(S(N)(=O)=O)cc2)NC(=O)N(CC(=O)c2ccc(F)cc2F)C1=O (racemic) | 3.19
CC1(c2ccc(S(N)(=O)=O)cc2)NC(=O)N(CC(=O)C23CC4CC(CC(C4)C2)C3)C1=O (racemic) | 2.52
CC1(c2ccc(S(N)(=O)=O)cc2)NC(=O)N(CC(=O)c2ccc(F)c(Cl)c2)C1=O (racemic) | 3.82
CC(=O)CN1C(=O)NC(C)(c2ccc(S(N)(=O)=O)cc2)C1=O (racemic) | 0.54
CC1(c2ccc(S(N)(=O)=O)cc2)NC(=O)N(CC(=O)c2ccccc2C(F)(F)F)C1=O (racemic) | 3.56
CC1(c2ccc(S(N)(=O)=O)cc2)NC(=O)N(CC(=O)c2ccc3ccccc3c2)C1=O (racemic) | 3.93
CNS(=O)(=O)c1ccc(C2(C)NC(=O)N(CC(=O)c3ccc(F)cc3F)C2=O)cc1 (racemic) | 3.88
CN(C)S(=O)(=O)c1ccc(C2(C)NC(=O)N(CC(=O)c3ccc(F)cc3F)C2=O)cc1 (racemic) | 4.6
CC1(c2ccc(C#N)cc2)NC(=O)N(CC(=O)c2ccccc2F)C1=O (racemic) | 4.3
CC1(c2ccc(NS(=O)(=O)C(F)(F)F)cc2)NC(=O)N(CC(=O)c2ccc(F)cc2F)C1=O (racemic) | 3.24
CC1(c2ccc(S(N)(=O)=O)cc2)NC(=O)N(CC(=O)c2ncc(F)cc2F)C1=O (racemic) | 2.39
CC1(c2ccc(S(N)(=O)=O)cc2)NC(=O)N(CC(=O)c2nc3ccccc3s2)C1=O (racemic) | 3.78
Cc1cccc(C(=O)CN2C(=O)NC(C)(c3ccc(S(N)(=O)=O)cc3)C2=O)c1 (racemic) | 3.36
CC1(c2ccc3c(c2)NC(=O)CO3)NC(=O)N(CC(=O)c2ccc(F)cc2F)C1=O (racemic) | 3.38
CC1(c2ccc(S(N)(=O)=O)cc2)NC(=O)N(CC(=O)c2cccnc2)C1=O (racemic) | 3.48
CC1(c2ccc(-c3nnn[nH]3)cc2)NC(=O)N(CC(=O)c2ccc(F)cc2F)C1=O (racemic) | 1.85
CC1(c2ccc(CS(C)(=O)=O)cc2)NC(=O)N(CC(=O)c2ccc(F)cc2F)C1=O (racemic) | 3.54
CC1(c2ccc(S(N)(=O)=O)cc2)NC(=O)N(CC(=O)c2ccncc2)C1=O (racemic) | 2.46

SMILES | chromatographic logD
CC1(c2ccc(NC(N)=O)cc2)NC(=O)N(CC(=O)c2ccc(F)cc2F)C1=O (racemic) | 2.71
CC1(c2ccc(C#N)cc2)NC(=O)N(CC(=O)c2ccc(F)c(C(F)(F)F)c2)C1=O (racemic) | 5.38
CC1(c2ccc(S(N)(=O)=O)cc2)NC(=O)N(CC(=O)c2ccc(Cl)s2)C1=O (racemic) | 3.52
CC1(c2ccc(S(N)(=O)=O)cc2)NC(=O)N(CC(=O)c2ccc(Cl)cc2Cl)C1=O (racemic) | 4.11
CC1(c2ccc(S(N)(=O)=O)cc2)NC(=O)N(CC(=O)C2CC2)C1=O (racemic) | 1.51
CC1(c2ccc(S(N)(=O)=O)cc2)NC(=O)N(CC(=O)c2ccc(C(F)(F)F)cc2)C1=O (racemic) | 4.15
CC1(c2ccc(S(N)(=O)=O)cc2)NC(=O)N(CC(=O)c2nccs2)C1=O (racemic) | 1.9
CC1(c2ccc(S(N)(=O)=O)cc2)NC(=O)N(CC(=O)c2cccc(F)c2)C1=O (racemic) | 3.08
COc1ccccc1C(=O)CN1C(=O)NC(C)(c2ccc(S(N)(=O)=O)cc2)C1=O (racemic) | 2.98
Cc1ccc(C(=O)CN2C(=O)NC(C)(c3ccc(S(N)(=O)=O)cc3)C2=O)cc1 (racemic) | 3.33
CC1(c2ccc(S(N)(=O)=O)cc2)NC(=O)N(CC(=O)c2ccccc2)C1=O (racemic) | 2.81
CC1(c2ccc(S(N)(=O)=O)cc2)NC(=O)N(CC(=O)c2cccc(OC(F)(F)F)c2)C1=O (racemic) | 4.14
CC1(c2ccc(C#N)cc2)NC(=O)N(CC(=O)c2cccc(F)c2)C1=O (racemic) | 4.39
Cc1ccccc1C(=O)CN1C(=O)NC(C)(c2ccc(S(N)(=O)=O)cc2)C1=O (racemic) | 3.3
COc1ccc(C(=O)CN2C(=O)NC(C)(c3ccc(S(N)(=O)=O)cc3)C2=O)cc1 (racemic) | 2.86
CC1(c2ccc(S(N)(=O)=O)cc2)NC(=O)N(CC(=O)c2cccc(C#N)c2)C1=O (racemic) | 2.4
CC1(c2ccc(S(N)(=O)=O)cc2)NC(=O)N(CC(=O)c2ccccn2)C1=O (racemic) | 4.87
Cc1ccccc1C(=O)CN1C(=O)NC(C)(c2ccc(C#N)cc2)C1=O (racemic) | 4.73
CC1(c2ccc(S(=O)(=O)NCC(F)(F)F)cc2)NC(=O)N(CC(=O)c2ccc(F)cc2F)C1=O (racemic) | 4.78
COc1cccc(C(=O)CN2C(=O)NC(C)(c3ccc(S(N)(=O)=O)cc3)C2=O)c1 (racemic) | 3
CC1(c2ccc(S(N)(=O)=O)cc2)NC(=O)N(CC(=O)c2cccc([N+](=O)[O-])c2)C1=O (racemic) | 2.77
CC(C)(C)C(=O)Oc1cc(F)ccc1C(=O)CN1C(=O)NC(C)(c2ccc(C#N)cc2)C1=O (racemic) | 5.84
CC1(c2ccc(C(=O)O)cc2)NC(=O)N(CC(=O)c2ccc(F)cc2F)C1=O (racemic) | 1.49
CC1(c2ccc(C#N)cc2)NC(=O)N(CC(=O)c2ccccn2)C1=O (racemic) | 2.03

SMILES | chromatographic logD
CC1(c2ccc(C(N)=O)cc2)NC(=O)N(CC(=O)c2ccc(F)cc2F)C1=O (racemic) | 2.68
CC1(c2ccc(C#N)cc2)NC(=O)N(CC(=O)c2ccc(F)cc2O)C1=O (racemic) | 4.56
Cc1cccc(C(=O)CN2C(=O)NC(C)(c3ccc(C#N)cc3)C2=O)c1 (racemic) | 4.71
CC1(c2ccc(C#N)cc2)NC(=O)N(CC(=O)c2ccncc2)C1=O (racemic) | 1.16
CC1(c2ccc(C#N)cc2)NC(=O)N(CC(=O)c2cccc(OC(F)(F)F)c2)C1=O (racemic) | 5.5
CC1(c2ccc(S(N)(=O)=O)cc2)NC(=O)N(CC(=O)c2cccs2)C1=O (racemic) | 2.35
CC1(c2ccc(N3CCCOC3=O)cc2)NC(=O)N(CC(=O)c2ccc(F)cc2F)C1=O (racemic) | 3.36
CC1(c2ccc(S(=O)(=O)NC3CC3)cc2)NC(=O)N(CC(=O)c2ccc(F)cc2F)C1=O (racemic) | 4.48
CC1(c2ccc(S(N)(=O)=O)cc2)NC(=O)N(CC(=O)c2ccc(F)cc2O)C1=O (racemic) | 3.12
Cc1ccc(C(=O)CN2C(=O)NC(C)(c3ccc(C#N)cc3)C2=O)cc1 (racemic) | 4.73
CC1(c2ccc(S(N)(=O)=O)cc2)NC(=O)N(CC(=O)c2ccc(F)c(C(F)(F)F)c2)C1=O (racemic) | 4.24
COC(=O)c1ccc(C2(C)NC(=O)N(CC(=O)c3ccc(F)cc3F)C2=O)cc1 (racemic) | 4.84
CC1(c2ccc(C#N)cc2)NC(=O)N(CC(=O)c2cccnc2)C1=O (racemic) | 1.16
CC1(c2ccc(S(N)(=O)=O)cc2)NC(=O)N(CC(=O)c2ccc(F)cc2)C1=O (racemic) | 3.03
CC1(c2ccc(NS(=O)(=O)c3ccccc3)cc2)NC(=O)N(CC(=O)c2ccc(F)cc2F)C1=O (racemic) | 4.9
CC1(c2ccc(S(N)(=O)=O)cc2)NC(=O)N(CC(=O)c2ccccc2F)C1=O (racemic) | 2.94
CC1(c2ccc(C#N)cc2)NC(=O)N(CC(=O)c2ccccc2)C1=O (racemic) | 4.19
CC1(c2ccc(S(N)(=O)=O)cc2)NC(=O)N(CC(=O)C2CCCCC2)C1=O (racemic) | 3.62
CC1(c2ccc(S(N)(=O)=O)cc2)NC(=O)N(CC(=O)c2ccc(C#N)cc2)C1=O (racemic) | 2.54
CC1(c2ccc(S(=O)(=O)N3CCOCC3)cc2)NC(=O)N(CC(=O)c2ccc(F)cc2F)C1=O (racemic) | 4.39
CC1(c2ccc(S(N)(=O)=O)cc2)NC(=O)N(CC(=O)c2ccc(F)c(F)c2)C1=O (racemic) | 3.34
CC1(c2ccc(S(N)(=O)=O)cc2)NC(=O)N(CC(=O)c2cc(C(F)(F)F)cc(C(F)(F)F)c2)C1=O (racemic) | 4.9
CC1(c2ccc(S(N)(=O)=O)cc2)NC(=O)N(CC(=O)c2cccc(Br)c2)C1=O (racemic) | 3.77

Test: Intrinsic clearance in mouse microsomes assessed as per gram protein at 0.5 uM after 30 mins in presence of NADPH by LC-MS/MS analysis
Type: ADME, Microsome
Settings: 0.5 h

SMILES | clearance
CC1(c2ccc(S(N)(=O)=O)cc2)NC(=O)N(CC(=O)c2ccc(F)cc2F)C1=O (racemic) | 2.67 mL/min/g

Test: Cmax in C57BL/6J mouse blood infected with Mycobacterium tuberculosis H37Rv at 170 mg/kg, po administered once daily for 4 consecutive days starting from 5 days post infection
Type: ADME, organism-based
Set-up: dose 170 mg/kg, route oral
Settings: not given

SMILES | Cmax
CC1(c2ccc(-n3cnnn3)cc2)NC(=O)N(CC(=O)c2ccc(F)cc2F)C1=O (configuration not stated) | 1870 ng/mL

Test: Cmax in C57BL/6J mouse blood infected with Mycobacterium tuberculosis H37Rv at 200 mg/kg, po administered once daily for 4 consecutive days starting from 5 days post infection
Type: ADME, organism-based
Set-up: dose 200 mg/kg, route oral
Settings: not given

SMILES | Cmax
CC1(c2ccc(S(N)(=O)=O)cc2)NC(=O)N(CC(=O)c2ccc(F)cc2F)C1=O (racemic) | 6380 ng/mL
